Experimental data as given in publication PMC5909473, “Isoform-selective activity-based profiling of ERK signaling” (Chemical Science, 2018).

What was measured:
ERK2 = molecular target: T1, ERK2 (Homo sapiens, UniProt P28482); assay: competition of ATP acyl phosphate probe labelling by […] free ATP, SILAC LC-MS/MS; format: cell-based
T1 construct: gene MAPK1; native endogenous ERK2 in lung cancer cell proteomes

ERK1 [1] = molecular target: T2, ERK1 (Homo sapiens, UniProt P27361); assay: as above; format: cell-based; set-up: gene MAPK3; native endogenous ERK1 in lung cancer cell proteomes
T2 sequence (P27361 2-379): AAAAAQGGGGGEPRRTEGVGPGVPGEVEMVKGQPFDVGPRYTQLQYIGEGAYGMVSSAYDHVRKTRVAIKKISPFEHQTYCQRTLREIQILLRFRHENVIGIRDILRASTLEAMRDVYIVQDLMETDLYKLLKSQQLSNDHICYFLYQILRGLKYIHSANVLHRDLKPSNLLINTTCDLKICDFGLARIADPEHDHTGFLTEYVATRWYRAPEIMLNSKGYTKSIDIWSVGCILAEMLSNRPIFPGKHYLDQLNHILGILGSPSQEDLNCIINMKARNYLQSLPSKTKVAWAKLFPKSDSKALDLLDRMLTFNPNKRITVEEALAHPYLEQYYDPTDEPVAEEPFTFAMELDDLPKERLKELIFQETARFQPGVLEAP

ERK1 [2] = molecular target: T2, ERK1; assay: competitive ATP acyl phosphate activity-based profiling, SILAC LC-MS/MS in A549 lysate; format: biochemical; set-up: gene MAPK3; native endogenous ERK1 in A549 soluble proteome

T1 sequence (P28482 2-360): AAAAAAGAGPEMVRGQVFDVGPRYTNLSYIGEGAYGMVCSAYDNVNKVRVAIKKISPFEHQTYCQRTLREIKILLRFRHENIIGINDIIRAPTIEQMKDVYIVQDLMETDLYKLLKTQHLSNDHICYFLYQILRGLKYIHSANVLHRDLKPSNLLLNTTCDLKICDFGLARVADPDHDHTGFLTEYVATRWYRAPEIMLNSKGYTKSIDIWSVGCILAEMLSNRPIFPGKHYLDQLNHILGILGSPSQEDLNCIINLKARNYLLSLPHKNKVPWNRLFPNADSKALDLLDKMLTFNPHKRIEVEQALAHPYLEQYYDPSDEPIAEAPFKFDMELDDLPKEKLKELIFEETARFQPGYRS

| SMILES | competition of ATP acyl phosphate probe labelling by 1 mM free ATP, SILAC LC-MS/ (ERK2) | competition of ATP acyl phosphate probe labelling by 1 mM free ATP, SILAC LC-MS/ (ERK1 [1]) | IC50 (ERK1 [2]) [µM] |
| --- | --- | --- | --- |
| Nc1ncnc2c1ncn2[C@@H]1O[C@H](COP(=O)(O)OP(=O)(O)OP(=O)(O)O)[C@@H](O)[C@H]1O [ATP] | both ERK1 and ERK2 probe-modified peptides were highly competed with ATP treatment | both ERK1 and ERK2 probe-modified peptides were highly competed with ATP treatment |  |
| CC(C)Nc1cc(-c2c[nH]c(C(=O)N[C@H](CO)c3cccc(Cl)c3)c2)c(Cl)cn1 [BVD-523] |  |  | 0.015 |
